Data: publication PMC5218480 (PLoS ONE, 2017)

Test system: MV-4-11 cells
Assay: Gene expression microarray analysis (Affymetrix PrimeView) and GSEA
Assay type: cell-based, human
Set-up: RFU PODN (11730768_x_at) / Fold change /veh PODN (11730768_x_at) / RFU LINC00158 (11744669_a_at) / Fold change /veh LINC00158 (11744669_a_at) / RFU DUSP10 (11751237_a_at) / Fold change /veh DUSP10 (11751237_a_at) / RFU ID3 (11757404_x_at) / Fold change /veh ID3 (11757404_x_at) / RFU PLEKHG5 (11737974_s_at) / Fold change /veh PLEKHG5 (11737974_s_at) / RFU LRRC4B (11730491_at) / Fold change /veh LRRC4B (11730491_at) / RFU GIMAP4 (11747438_a_at) / Fold change /veh GIMAP4 (11747438_a_at) / RFU KRT8 (11758183_x_at) / Fold change /veh KRT8 (11758183_x_at) / RFU CNN1 (11734310_a_at) / Fold change /veh CNN1 (11734310_a_at) / RFU VPS37D (11726825_at) / Fold change /veh VPS37D (11726825_at) / RFU C10orf10 (11716522_x_at) / Fold change /veh C10orf10 (11716522_x_at) / RFU KIR2DL2 /// KIR2DL4 /// KIR2DL5A /// KIR2DL5B /// KIR2DS1 /// KIR2DS2 /// KIR2DS3 /// KIR2DS4 /// KIR3DL3 /// KIR3DL3 /// KIR3DS1 (11738374_at) / Fold change /veh KIR2DL2 /// KIR2DL4 /// KIR2DL5A /// KIR2DL5B /// KIR2DS1 /// KIR2DS2 /// KIR2DS3 /// KIR2DS4 /// KIR3DL3 /// KIR3DL3 /// KIR3DS1 (11738374_at) / RFU C1QL1 (11718748_at) / Fold change /veh C1QL1 (11718748_at) / RFU TMPRSS4 (11747572_a_at) / Fold change /veh TMPRSS4 (11747572_a_at) / RFU HAMP (11756126_x_at) / Fold change /veh HAMP (11756126_x_at) / RFU RNFT2 (11725882_a_at) / Fold change /veh RNFT2 (11725882_a_at) / RFU NR4A2 (11747474_a_at) / Fold change /veh NR4A2 (11747474_a_at) / RFU ABCC12 (11746883_a_at) / Fold change /veh ABCC12 (11746883_a_at) / RFU TMEM136 (11760407_x_at) / Fold change /veh TMEM136 (11760407_x_at) / RFU CLDN22 /// WWC2 (11732394_at) / Fold change /veh CLDN22 /// WWC2 (11732394_at) / RFU HLA-DPB1 (11760878_x_at) / Fold change /veh HLA-DPB1 (11760878_x_at) / RFU SPINT1 (11716480_a_at) / Fold change /veh SPINT1 (11716480_a_at) / RFU GAP43 (11754022_s_at) / Fold change /veh GAP43 (11754022_s_at) / RFU A4GNT (11735810_at) / Fold change /veh A4GNT (11735810_at) / RFU PRB3 (11715151_x_at) / Fold change /veh PRB3 (11715151_x_at) / RFU TUBB4B (11761932_at) / Fold change /veh TUBB4B (11761932_at) / RFU CAPN14 (11732068_a_at) / Fold change /veh CAPN14 (11732068_a_at) / RFU TMCC2 (11721928_a_at) / Fold change /veh TMCC2 (11721928_a_at) / RFU IRGQ (11745062_a_at) / Fold change /veh IRGQ (11745062_a_at) / RFU FAM174B (11720279_a_at) / Fold change /veh FAM174B (11720279_a_at) / RFU TMPRSS4 (11748680_a_at) / Fold change /veh TMPRSS4 (11748680_a_at) / RFU FAM212B (11763350_a_at) / Fold change /veh FAM212B (11763350_a_at) / RFU PLEKHG5 (11743358_a_at) / Fold change /veh PLEKHG5 (11743358_a_at) / RFU ZSCAN30 (11745921_a_at) / Fold change /veh ZSCAN30 (11745921_a_at) / RFU CMKLR1 (11741424_a_at) / Fold change /veh CMKLR1 (11741424_a_at) / RFU LOC101060620 /// MAPK8IP1 (11723275_at) / Fold change /veh LOC101060620 /// MAPK8IP1 (11723275_at) / RFU SPTSSB (11747773_x_at) / Fold change /veh SPTSSB (11747773_x_at) / RFU PRSS12 (11739890_at) / Fold change /veh PRSS12 (11739890_at) / RFU BIN1 (11741810_x_at) / Fold change /veh BIN1 (11741810_x_at) / RFU WNT11 (11732464_a_at) / Fold change /veh WNT11 (11732464_a_at) / RFU C10orf10 (11716521_a_at) / Fold change /veh C10orf10 (11716521_a_at) / RFU C5orf56 (11738089_at) / Fold change /veh C5orf56 (11738089_at) / RFU CYB561 (11721691_x_at) / Fold change /veh CYB561 (11721691_x_at) / RFU ANKRD19P (11752326_a_at) / Fold change /veh ANKRD19P (11752326_a_at) / RFU OR2T12 /// OR2T33 /// OR2T8 (11738714_s_at) / Fold change /veh OR2T12 /// OR2T33 /// OR2T8 (11738714_s_at) / RFU VCAN (11748164_a_at) / Fold change /veh VCAN (11748164_a_at) / RFU JSRP1 (11732532_at) / Fold change /veh JSRP1 (11732532_at) / RFU KRTAP10-11 (11738290_x_at) / Fold change /veh KRTAP10-11 (11738290_x_at) / RFU MYO3A (11730013_a_at) / Fold change /veh MYO3A (11730013_a_at) / RFU EBF3 (11725865_a_at) / Fold change /veh EBF3 (11725865_a_at) / RFU CAMK2N1 (11719241_x_at) / Fold change /veh CAMK2N1 (11719241_x_at) / RFU C5orf56 (11738088_a_at) / Fold change /veh C5orf56 (11738088_a_at) / RFU OLFML3 (11715873_a_at) / Fold change /veh OLFML3 (11715873_a_at) / RFU LOC100653217 /// NTM (11731650_a_at) / Fold change /veh LOC100653217 /// NTM (11731650_a_at) / RFU MAPK11 (11762145_a_at) / Fold change /veh MAPK11 (11762145_a_at) / RFU FIZ1 (11724087_x_at) / Fold change /veh FIZ1 (11724087_x_at) / RFU OASL (11726364_x_at) / Fold change /veh OASL (11726364_x_at) / RFU SOX15 (11748057_x_at) / Fold change /veh SOX15 (11748057_x_at) / RFU CD79A (11719716_a_at) / Fold change /veh CD79A (11719716_a_at) / RFU HIST1H1D (11736915_at) / Fold change /veh HIST1H1D (11736915_at) / RFU CASKIN2 (11723855_a_at) / Fold change /veh CASKIN2 (11723855_a_at) / RFU LOC730098 (11760151_x_at) / Fold change /veh LOC730098 (11760151_x_at) / RFU OR4N2 (11742367_at) / Fold change /veh OR4N2 (11742367_at) / RFU PRRT2 (11749266_a_at) / Fold change /veh PRRT2 (11749266_a_at) / RFU SNX32 (11753110_a_at) / Fold change /veh SNX32 (11753110_a_at) / RFU CDHR5 (11726645_a_at) / Fold change /veh CDHR5 (11726645_a_at) / RFU RCAN1 (11760418_a_at) / Fold change /veh RCAN1 (11760418_a_at) / RFU FAM167A (11723789_a_at) / Fold change /veh FAM167A (11723789_a_at) / RFU FAM26E (11764081_at) / Fold change /veh FAM26E (11764081_at) / RFU ISYNA1 (11749810_s_at) / Fold change /veh ISYNA1 (11749810_s_at) / RFU ACY1 (11761880_at) / Fold change /veh ACY1 (11761880_at) / RFU 11764098_at / Fold change /veh 11764098_at / RFU SAMD14 (11745864_x_at) / Fold change /veh SAMD14 (11745864_x_at) / RFU NPB (11741838_a_at) / Fold change /veh NPB (11741838_a_at) / RFU TMPRSS6 (11731388_a_at) / Fold change /veh TMPRSS6 (11731388_a_at) / RFU KRTAP10-2 (11738614_at) / Fold change /veh KRTAP10-2 (11738614_at) / RFU ARHGAP8 /// PRR5-ARHGAP8 (11727945_x_at) / Fold change /veh ARHGAP8 /// PRR5-ARHGAP8 (11727945_x_at) / RFU KRTAP5-7 /// NADSYN1 (11734609_at) / Fold change /veh KRTAP5-7 /// NADSYN1 (11734609_at) / RFU RASL12 (11751679_a_at) / Fold change /veh RASL12 (11751679_a_at) / RFU CDKN2B (11736163_a_at) / Fold change /veh CDKN2B (11736163_a_at) / RFU PRF1 (11729649_at) / Fold change /veh PRF1 (11729649_at) / RFU, ZNF638 /// ZNF638-IT1 / Fold change vs veh, ZNF638 /// ZNF638-IT1 / RFU, PANK3 / Fold change vs veh, PANK3 / RFU, SH3YL1 / Fold change vs veh, SH3YL1 / RFU, ZEB2 / Fold change vs veh, ZEB2 / RFU, NRIP1 / Fold change vs veh, NRIP1 / RFU, PTTG1IP / Fold change vs veh, PTTG1IP / RFU, CAPN2 / Fold change vs veh, CAPN2 / RFU, MED14 / Fold change vs veh, MED14 / RFU, SNORA58 / Fold change vs veh, SNORA58 / RFU, C1orf63 / Fold change vs veh, C1orf63 / RFU, LRRFIP1 / Fold change vs veh, LRRFIP1 / RFU, NDUFAF7 / Fold change vs veh, NDUFAF7 / RFU, SLC12A2 / Fold change vs veh, SLC12A2 / RFU, IBTK / Fold change vs veh, IBTK / RFU, ESF1 / Fold change vs veh, ESF1 / Fold change vs veh, TMEM50B / RFU, TAOK1 / Fold change vs veh, TAOK1 / RFU, ACBD3 / Fold change vs veh, ACBD3 / RFU, TMA16 / Fold change vs veh, TMA16 / RFU, RWDD3 / Fold change vs veh, RWDD3 / RFU, BCAT1 / Fold change vs veh, BCAT1 / RFU, EDEM3 / Fold change vs veh, EDEM3 / RFU, TMEM33 / Fold change vs veh, TMEM33 / RFU, WDR75 / Fold change vs veh, WDR75 / RFU, AHCTF1 / Fold change vs veh, AHCTF1 / RFU, TFRC / Fold change vs veh, TFRC / RFU, ZDHHC17 / Fold change vs veh, ZDHHC17 / RFU, NOM1 / Fold change vs veh, NOM1 / RFU, ARL8B / Fold change vs veh, ARL8B / RFU, ZBTB11 / Fold change vs veh, ZBTB11 / RFU, TAMM41 / Fold change vs veh, TAMM41 / RFU, KIAA1704 /// LOC100996395 / Fold change vs veh, KIAA1704 /// LOC100996395 / RFU, ING1 / Fold change vs veh, ING1 / RFU, TRMT61B / Fold change vs veh, TRMT61B / RFU, FUBP3 / Fold change vs veh, FUBP3 / RFU, TP53 / Fold change vs veh, TP53 / RFU, TNKS2 / Fold change vs veh, TNKS2 / RFU, ZFP14 / Fold change vs veh, ZFP14 / RFU, ACTR2 / Fold change vs veh, ACTR2 / RFU, PPP3R1 / Fold change vs veh, PPP3R1 / RFU, PIK3R1 / Fold change vs veh, PIK3R1 / RFU, HNRNPA1 / Fold change vs veh, HNRNPA1 / RFU, RNF170 / Fold change vs veh, RNF170 / RFU, ZNF28 / Fold change vs veh, ZNF28 / RFU, RNGTT / Fold change vs veh, RNGTT / RFU, OGT / Fold change vs veh, OGT / RFU, BRD1 / Fold change vs veh, BRD1 / RFU, MARS / Fold change vs veh, MARS / RFU, ZNF655 / Fold change vs veh, ZNF655 / RFU, FAHD1 / Fold change vs veh, FAHD1 / RFU, BDP1 / Fold change vs veh, BDP1 / RFU, LRRCC1 / Fold change vs veh, LRRCC1 / RFU, ARID1A / Fold change vs veh, ARID1A / RFU, ZNF146 / Fold change vs veh, ZNF146 / RFU, ZNF330 / Fold change vs veh, ZNF330 / RFU, GPN3 / Fold change vs veh, GPN3 / RFU, C9orf123 / Fold change vs veh, C9orf123 / RFU, N4BP2L2 / Fold change vs veh, N4BP2L2 / RFU, ARFIP1 / Fold change vs veh, ARFIP1 / RFU, FAM179B / Fold change vs veh, FAM179B / RFU, BCL10 / Fold change vs veh, BCL10 / RFU, UHRF1BP1L / Fold change vs veh, UHRF1BP1L / RFU, BET1 / Fold change vs veh, BET1 / RFU, CNOT2 / Fold change vs veh, CNOT2 / RFU, ZNF268 / Fold change vs veh, ZNF268 / Fold change vs veh, ZNF507 / RFU, DGCR2 / Fold change vs veh, DGCR2 / RFU, WDSUB1 / Fold change vs veh, WDSUB1 / Fold change vs veh, HSP90B1 /// MIR3652 / RFU, ADSS / Fold change vs veh, ADSS / RFU, GK / Fold change vs veh, GK / RFU, ZNF148 / Fold change vs veh, ZNF148 / RFU, TAF9 / Fold change vs veh, TAF9 / RFU, SLC1A5 / Fold change vs veh, SLC1A5 / RFU, SLMO2 / Fold change vs veh, SLMO2 / RFU, ABCC4 / Fold change vs veh, ABCC4 / RFU, LOC101060439 /// RAP1B / Fold change vs veh, LOC101060439 /// RAP1B / RFU, RFX7 / Fold change vs veh, RFX7 / RFU, GTPBP10 / Fold change vs veh, GTPBP10 / RFU, CNEP1R1 / Fold change vs veh, CNEP1R1 / RFU, BIVM-ERCC5 /// ERCC5 / Fold change vs veh, BIVM-ERCC5 /// ERCC5 / RFU, ILF3 / Fold change vs veh, ILF3 / RFU 11762660_at / Fold change /veh 11762660_at / RFU VCAN (11757783_s_at) / Fold change /veh VCAN (11757783_s_at) / RFU DDX43 (11728927_at) / Fold change /veh DDX43 (11728927_at) / RFU KRT8 (11758188_x_at) / Fold change /veh KRT8 (11758188_x_at) / RFU NKD1 (11759106_at) / Fold change /veh NKD1 (11759106_at) / RFU SRD5A1 (11742802_a_at) / Fold change /veh SRD5A1 (11742802_a_at) / RFU TPSAB1 /// TPSB2 (11721975_s_at) / Fold change /veh TPSAB1 /// TPSB2 (11721975_s_at) / RFU GSTM3 (11746129_a_at) / Fold change /veh GSTM3 (11746129_a_at) / RFU IL23R (11737362_x_at) / Fold change /veh IL23R (11737362_x_at) / RFU TMEM51 (11727254_a_at) / Fold change /veh TMEM51 (11727254_a_at) / RFU PIWIL2 (11732686_x_at) / Fold change /veh PIWIL2 (11732686_x_at) / RFU ORM1 (11744905_x_at) / Fold change /veh ORM1 (11744905_x_at) / RFU CCDC152 (11743942_at) / Fold change /veh CCDC152 (11743942_at) / RFU ECM1 (11717891_a_at) / Fold change /veh ECM1 (11717891_a_at) / RFU IL23R (11748794_a_at) / Fold change /veh IL23R (11748794_a_at) / RFU TNFAIP8L3 (11732012_x_at) / Fold change /veh TNFAIP8L3 (11732012_x_at) / RFU MBOAT4 (11741988_at) / Fold change /veh MBOAT4 (11741988_at) / RFU 11764193_at / Fold change /veh 11764193_at / RFU TMEM53 (11763286_at) / Fold change /veh TMEM53 (11763286_at) / RFU MAGEB2 (11727129_at) / Fold change /veh MAGEB2 (11727129_at) / RFU TMEM200A (11744735_a_at) / Fold change /veh TMEM200A (11744735_a_at) / RFU CCDC152 (11751479_a_at) / Fold change /veh CCDC152 (11751479_a_at) / RFU FAM211A (11726209_a_at) / Fold change /veh FAM211A (11726209_a_at) / RFU RGS16 (11746705_a_at) / Fold change /veh RGS16 (11746705_a_at) / RFU VCAN (11755009_s_at) / Fold change /veh VCAN (11755009_s_at) / RFU RHOB (11743442_s_at) / Fold change /veh RHOB (11743442_s_at) / RFU RGS16 (11720943_a_at) / Fold change /veh RGS16 (11720943_a_at) / RFU RGS16 (11720944_at) / Fold change /veh RGS16 (11720944_at) / RFU, VPS4B / Fold change vs veh, VPS4B / RFU, CREB1 / Fold change vs veh, CREB1 / RFU, DNAJC13 / Fold change vs veh, DNAJC13 / RFU, GNAQ / Fold change vs veh, GNAQ / RFU, CDK5R1 / Fold change vs veh, CDK5R1 / RFU, ZRANB3 / Fold change vs veh, ZRANB3 / RFU, CUL4A / Fold change vs veh, CUL4A / RFU, CCNY / Fold change vs veh, CCNY / RFU, UFL1 / Fold change vs veh, UFL1 / RFU, COG3 / Fold change vs veh, COG3 / RFU, DIAPH2 / Fold change vs veh, DIAPH2 / RFU, SKA2 / Fold change vs veh, SKA2 / RFU, AFF3 / Fold change vs veh, AFF3 / RFU, LMF1 / Fold change vs veh, LMF1 / RFU, IPO11 / Fold change vs veh, IPO11 / RFU, DFFB / Fold change vs veh, DFFB / RFU, FOXP1 / Fold change vs veh, FOXP1 / RFU, CARD8 / Fold change vs veh, CARD8 / RFU, STRN3 / Fold change vs veh, STRN3 / RFU, ADK / Fold change vs veh, ADK / RFU, RASSF2 / Fold change vs veh, RASSF2 / RFU, WIPF1 / Fold change vs veh, WIPF1 / RFU, LARP1B / Fold change vs veh, LARP1B / RFU, RASA1 / Fold change vs veh, RASA1 / RFU, RB1 / Fold change vs veh, RB1 / RFU, PPFIA1 / Fold change vs veh, PPFIA1 / RFU, MAT2A / Fold change vs veh, MAT2A / RFU, CCT5 / Fold change vs veh, CCT5 / RFU, WDR92 / Fold change vs veh, WDR92 / RFU, CUX1 / Fold change vs veh, CUX1 / RFU, TTC7A / Fold change vs veh, TTC7A / RFU, TMEM135 / Fold change vs veh, TMEM135 / RFU, DEPTOR / Fold change vs veh, DEPTOR / RFU, CPM / Fold change vs veh, CPM / RFU, DNAJB6 / Fold change vs veh, DNAJB6 / RFU, CACNA2D3 / Fold change vs veh, CACNA2D3 / RFU, DTX4 / Fold change vs veh, DTX4 / RFU, TFCP2 / Fold change vs veh, TFCP2 / RFU, GMCL1 /// GMCL1P1 / Fold change vs veh, GMCL1 /// GMCL1P1 / RFU, AEBP2 / Fold change vs veh, AEBP2 / RFU, SNHG1 /// SNORD22 /// SNORD25 /// SNORD26 /// SNORD27 /// SNORD28 /// SNORD29 /// SNORD31 / Fold change vs veh, SNHG1 /// SNORD22 /// SNORD25 /// SNORD26 /// SNORD27 /// SNORD28 /// SNORD29 /// SNORD31 / Fold change (Aza/veh), C12orf56 (ProbeSet 11735607_a_at) / Fold change (ACY-1035/veh), C12orf56 (ProbeSet 11735607_a_at) / Fold change (Aza/veh), FGFR1OP (ProbeSet 11751329_s_at) / Fold change (ACY-1035/veh), FGFR1OP (ProbeSet 11751329_s_at) / Fold change (Aza/veh), VPS36 (ProbeSet 11739960_a_at) / Fold change (ACY-1035/veh), VPS36 (ProbeSet 11739960_a_at) / RFU SYPL1 (11715823_x_at) / Fold change /veh SYPL1 (11715823_x_at) / RFU IGFBP7 (11715501_s_at) / Fold change /veh IGFBP7 (11715501_s_at) / RFU REEP3 (11722064_at) / Fold change /veh REEP3 (11722064_at) / RFU IGLL1 (11728026_x_at) / Fold change /veh IGLL1 (11728026_x_at): dose or concentration left out as unconfirmed
Conditions: ProbeSet 11725787_a_at; LIST B

## Nc1ncn([C@@H]2O[C@H](CO)[C@@H](O)[C@H]2O)c(=O)n1 [azacitidine]
  RFU, TMA16: 152.00 RFU
